# Species: Rattus norvegicus
# Assay: Open TG-GATES - Regimen: Single
# Assay type: toxicity, organism-based, Sprague-Dawley
# Design: regimen Single, gender Male, age 6 weeks
# Details: in vivo, po, 0 mg/kg, route gavage, dose level Control; for APTT / Bas / Eos / Fbg / Hb / Ht / Lym / MCH / MCHC / MCV / Mono / Neu / PT / Plat / RBC / Ret / WBC: tissue Blood; for KIDNEY_L / KIDNEY_R / KIDNEY_TOTAL: tissue Kidney; for LIVER: tissue Liver; for A/G / ALP / ALT / AST / BUN / CRE / Ca / Cl / DBIL / GLC / IP / K / LDH / Na / PL / RALB / TBIL / TC / TG / TP / gamma-GTP: tissue Plasma
smiles,measurement,setting,value
CCCNC(=O)NS(=O)(=O)c1ccc(Cl)cc1 [CHLORPROPAMIDE],TERMINAL_BW,3 h,199.1 g
same,APTT,3 h,16.5 s
same,Bas,3 h,0.4%
same,Eos,3 h,1%
same,Fbg,3 h,290 mg/dL
same,Hb,3 h,13.3 g/dL
same,Ht,3 h,40.3%
same,Lym,3 h,76.2%
same,MCH,3 h,21.1 pg
same,MCHC,3 h,32.9%
same,MCV,3 h,64.1 fL
same,Mono,3 h,3.4%
same,Neu,3 h,17.8%
same,PT,3 h,15.6 s
same,Plat,3 h,118.9 x10_4/uL
same,RBC,3 h,629.8 x10_4/ul
same,Ret,3 h,8.9%
same,WBC,3 h,85.4 x10_2/uL
same,KIDNEY_L,3 h,0.9 g
same,KIDNEY_R,3 h,0.9 g
same,KIDNEY_TOTAL,3 h,1.8 g
same,LIVER,3 h,8.8 g
same,A/G,3 h,0.9
same,ALP,3 h,1444 IU/L
same,ALT,3 h,43.6 IU/L
same,AST,3 h,75.8 IU/L
same,BUN,3 h,10.4 mg/dL
same,CRE,3 h,0.2 mg/dL
same,Ca,3 h,10.9 mg/dL
same,Cl,3 h,106 meq/L
same,DBIL,3 h,0.01 mg/dL
same,GLC,3 h,176.6 mg/dL
same,IP,3 h,8.9 mg/dL
same,K,3 h,4.3 meq/L
same,LDH,3 h,89 IU/L
same,Na,3 h,142.2 meq/L
same,PL,3 h,137.8 mg/dL
same,RALB,3 h,2.5 g/dL
same,TBIL,3 h,0.04 mg/dL
same,TC,3 h,80.2 mg/dL
same,TG,3 h,53.8 mg/dL
same,TP,3 h,5.4 g/dL
same,gamma-GTP,3 h,1.4 IU/L
same,TERMINAL_BW,6 h,194.7 g
same,APTT,6 h,18.3 s
same,Bas,6 h,0.2%
same,Eos,6 h,1%
same,Fbg,6 h,308.8 mg/dL
same,Hb,6 h,13.2 g/dL
same,Ht,6 h,40.5%
same,Lym,6 h,71.2%
same,MCH,6 h,21 pg
same,MCHC,6 h,32.6%
same,MCV,6 h,64.3 fL
same,Mono,6 h,3%
same,Neu,6 h,23.8%
same,PT,6 h,15.4 s
same,Plat,6 h,108.8 x10_4/uL
same,RBC,6 h,630.6 x10_4/ul
same,Ret,6 h,9.2%
same,WBC,6 h,85.6 x10_2/uL
same,KIDNEY_L,6 h,0.9 g
same,KIDNEY_R,6 h,0.9 g
same,KIDNEY_TOTAL,6 h,1.7 g
same,LIVER,6 h,8.2 g
same,A/G,6 h,0.9
same,ALP,6 h,1385.6 IU/L
same,ALT,6 h,42.4 IU/L
same,AST,6 h,74.4 IU/L
same,BUN,6 h,9.4 mg/dL
same,CRE,6 h,0.2 mg/dL
same,Ca,6 h,10.7 mg/dL
same,Cl,6 h,106 meq/L
same,DBIL,6 h,0.01 mg/dL
same,GLC,6 h,174 mg/dL
same,IP,6 h,9.8 mg/dL
same,K,6 h,4.2 meq/L
same,LDH,6 h,63.6 IU/L
same,Na,6 h,143 meq/L
same,PL,6 h,153.4 mg/dL
same,RALB,6 h,2.5 g/dL
same,TBIL,6 h,0.046 mg/dL
same,TC,6 h,90.6 mg/dL
same,TG,6 h,50.6 mg/dL
same,TP,6 h,5.4 g/dL
same,gamma-GTP,6 h,1 IU/L
same,TERMINAL_BW,9 h,194.8 g
same,APTT,9 h,18.5 s
same,Bas,9 h,0%
same,Eos,9 h,0.8%
same,Fbg,9 h,294.6 mg/dL
same,Hb,9 h,12.9 g/dL
same,Ht,9 h,39.6%
same,Lym,9 h,74.4%
same,MCH,9 h,21.3 pg
same,MCHC,9 h,32.8%
same,MCV,9 h,65.1 fL
same,Mono,9 h,2.2%
same,Neu,9 h,21%
same,PT,9 h,15.4 s
same,Plat,9 h,119.1 x10_4/uL
same,RBC,9 h,607.8 x10_4/ul
same,Ret,9 h,9.1%
same,WBC,9 h,91.1 x10_2/uL
same,KIDNEY_L,9 h,0.9 g
same,KIDNEY_R,9 h,0.9 g
same,KIDNEY_TOTAL,9 h,1.8 g
same,LIVER,9 h,7.6 g
same,A/G,9 h,0.9
same,ALP,9 h,1410 IU/L
same,ALT,9 h,42 IU/L
same,AST,9 h,74.6 IU/L
same,BUN,9 h,8.4 mg/dL
same,CRE,9 h,0.2 mg/dL
same,Ca,9 h,10.6 mg/dL
same,Cl,9 h,106.8 meq/L
same,DBIL,9 h,0.006 mg/dL
same,GLC,9 h,165.4 mg/dL
same,IP,9 h,10 mg/dL
same,K,9 h,3.9 meq/L
same,LDH,9 h,63.6 IU/L
same,Na,9 h,142.8 meq/L
same,PL,9 h,136.6 mg/dL
same,RALB,9 h,2.5 g/dL
same,TBIL,9 h,0.052 mg/dL
same,TC,9 h,84.4 mg/dL
same,TG,9 h,41.4 mg/dL
same,TP,9 h,5.4 g/dL
same,gamma-GTP,9 h,1 IU/L
same,TERMINAL_BW,24 h,211.4 g
same,APTT,24 h,16.9 s
same,Bas,24 h,0.2%
same,Eos,24 h,0.8%
same,Fbg,24 h,277.8 mg/dL
same,Hb,24 h,13 g/dL
same,Ht,24 h,40.6%
same,Lym,24 h,80%
same,MCH,24 h,21.7 pg
same,MCHC,24 h,32.2%
same,MCV,24 h,67.3 fL
same,Mono,24 h,2.8%
same,Neu,24 h,15%
same,PT,24 h,15.5 s
same,Plat,24 h,117.6 x10_4/uL
same,RBC,24 h,602.6 x10_4/ul
same,Ret,24 h,9.2%
same,WBC,24 h,102.7 x10_2/uL
same,KIDNEY_L,24 h,0.9 g
same,KIDNEY_R,24 h,0.9 g
same,KIDNEY_TOTAL,24 h,1.9 g
same,LIVER,24 h,10.1 g
same,A/G,24 h,0.8
same,ALP,24 h,1569 IU/L
same,ALT,24 h,44.8 IU/L
same,AST,24 h,71.8 IU/L
same,BUN,24 h,14.6 mg/dL
same,CRE,24 h,0.2 mg/dL
same,Ca,24 h,10.9 mg/dL
same,Cl,24 h,105.4 meq/L
same,DBIL,24 h,0.012 mg/dL
same,GLC,24 h,187 mg/dL
same,IP,24 h,8.5 mg/dL
same,K,24 h,4.2 meq/L
same,LDH,24 h,79.4 IU/L
same,Na,24 h,142.6 meq/L
same,PL,24 h,154 mg/dL
same,RALB,24 h,2.6 g/dL
same,TBIL,24 h,0.034 mg/dL
same,TC,24 h,82.6 mg/dL
same,TG,24 h,108.6 mg/dL
same,TP,24 h,5.6 g/dL
same,gamma-GTP,24 h,1 IU/L

# Source: ChEMBL document CHEMBL3885861, “Open TG-GATES”
